This passage reports inhibition results from publication PMC13305993, “Bioassay-Guided Phytochemical Investigation of Vietnamese Vitex rotundifolia Leaves and the Liverwort Ptychanthus striatus as Sources of SARS-CoV-2 Main Protease Inhibitors” (Molecules, 2026).

The assay has as its target SARS-CoV-2 Mpro (Severe acute respiratory syndrome coronavirus 2, UniProt P0DTD1). The assay is described as follows: biochemical. As to conditions: isolated compounds at 100 µg/mL; triplicate, mean (Figure 3).

As usually defined, the inhibition is how much of the control response was suppressed. The low end stands for a weak effect, the high end for a strong effect.

`C=C(C)[C@@H]1CC[C@]2(C(=O)O)CC[C@]3(C)[C@H](CC[C@@H]4[C@@]5(C)CC[C@H](O)C(C)(C)[C@@H]5CC[C@]43C)[C@@H]12` [V10, betulinic acid] showed an inhibition at 100 µg/mL of 0%.
